Measurements published in paper PMC9927457 (Microbiology Spectrum, 2023).
In brackets after ≈: the same amount, converted by molar mass.

Assays:
[1] = test system: nonreplicating M. tuberculosis; test: Kill kinetics, nonreplicating (nutrient starved) bacteria; type: cell-based, Mycobacterium tuberculosis; details: nutrient starvation, PBS-tyloxapol
[2] = Microsomal metabolic stability; details: human; for half-life at 1 µM: liver microsomes
Procedure: Permeability was measured across Caco-2 cells cultured in a Millipore 96-well Caco-2 plate. For apical to basolateral (A→B) permeability, 10 μM compound was added to the apical (A) side and amount of permeation was determined on the basolateral (B) side; for basolateral to apical (B→A) permeability, the compound was added to the B side and the amount of permeation was determine on the A side. Time points were taken at 2 h.
Table S3. Metabolic stability. Metabolic stability was measured using human liver microsomes. […]

[3] = molecular target: SPase activity in M. tuberculosis H37Rv cell membrane fractions (Mycobacterium tuberculosis, UniProt P9WKA1); test: Inhibition of secretion (SPase activity) in membrane fractions; type: biochemical; details: fluorogenic peptide substrate 2 μM; 4 h, 37 °C
CYP2B6 = molecular target: T1, CYP2B6 (Homo sapiens, UniProt P20813); test: Cytochrome P450 inhibition
T1 sequence (P20813 1-491): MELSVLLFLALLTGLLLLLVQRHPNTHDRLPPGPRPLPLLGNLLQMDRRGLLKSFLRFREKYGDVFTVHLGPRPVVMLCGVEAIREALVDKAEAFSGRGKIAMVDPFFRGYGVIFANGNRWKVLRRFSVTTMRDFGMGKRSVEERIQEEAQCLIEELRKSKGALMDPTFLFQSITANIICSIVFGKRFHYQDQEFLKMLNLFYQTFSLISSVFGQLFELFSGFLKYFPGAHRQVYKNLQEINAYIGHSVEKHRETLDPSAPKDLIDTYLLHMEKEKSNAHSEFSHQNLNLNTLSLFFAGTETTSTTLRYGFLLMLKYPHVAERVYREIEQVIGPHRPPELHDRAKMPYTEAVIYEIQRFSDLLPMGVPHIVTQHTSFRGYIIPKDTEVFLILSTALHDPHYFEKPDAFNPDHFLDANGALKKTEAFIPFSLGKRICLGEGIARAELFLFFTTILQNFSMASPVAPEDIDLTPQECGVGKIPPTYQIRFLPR
Procedure: Table S4. Inhibition of cytochrome P450s.
Compounds were tested for inhibition of P450s using the enzyme substrate pairs and conditions noted. IC50s (µM) were calculated. Control P450 inhibitors were included for each isoform.
For each compound, the analytical method was developed as follows. Analyte signal was optimized for each compound by ESI positive or negative ionization mode. An MS2 scan or an SIM scan was used to optimize fragmenter voltage and a product ion analysis was used to identify the best fragment for analysis. The collision energy was optimized using a product ion or MRM scan. An ionization ranking was assigned indicating the compound’s ease of ionization. Samples […]
1200 HPLC and a CTC PAL chilled autosampler, all controlled by MassHunter software (Agilent).
After separation on a C18 reverse phase HPLC column (Agilent Zorbax StableBond 3.5µm, 2.1 x 30 mm) using an acetonitrile -water gradient system, peaks were analyzed by mass spectrometry (MS) using ESI ionization in MRM mode.
(1 picture or pasted object on this page, not shown here)
Serial dilutions of a 10 mM stock solution were prepared in acetonitrile:DMSO (9:1). The final DMSO concentration was < 0.2%. Compounds were incubated with human liver microsomes in the presence of 2 mM NADPH in 100 mM potassium phosphate (pH 7.4) containing 5 mM magnesium chloride and a probe substrate, in a 200 µl assay final volume in duplicate. The probe substrate concentrations including bupropion (CYP2B6), amodiaquine (CYP2C8), tolbutamide (CYP2C9), mephenytoin (CYP2C19), dextromethorphan (CYP2D6) and midazolam/testosterone […]
After incubation at 37 °C, reactions were terminated by addition of methanol containing internal standard (propranolol) for analytical quantification. The quenched samples were kept on ice for 10 min and centrifuged at 4 °C for 10 min. The supernatant was removed and the probe substrate metabolite was analyzed by LC-MS/MS (Agilent Technologies Triple Quad LC/MS). A decrease in the formation of the metabolite compared to vehicle control

[4] = test system: M. tuberculosis wild-type strain; test: MIC against wild-type M. tuberculosis; type: cell-based, Mycobacterium tuberculosis; details: concentration required to inhibit growth by 90%, 5 days culture
[5] = test system: M. tuberculosis strain under expressing LepB (LepB-UE); test: microbe, parasite or virus in culture; type: cell-based, Mycobacterium tuberculosis

SPase activity in M. tuberculosis H37Rv cell membrane fractions, sequence (P9WKA1 whole entry): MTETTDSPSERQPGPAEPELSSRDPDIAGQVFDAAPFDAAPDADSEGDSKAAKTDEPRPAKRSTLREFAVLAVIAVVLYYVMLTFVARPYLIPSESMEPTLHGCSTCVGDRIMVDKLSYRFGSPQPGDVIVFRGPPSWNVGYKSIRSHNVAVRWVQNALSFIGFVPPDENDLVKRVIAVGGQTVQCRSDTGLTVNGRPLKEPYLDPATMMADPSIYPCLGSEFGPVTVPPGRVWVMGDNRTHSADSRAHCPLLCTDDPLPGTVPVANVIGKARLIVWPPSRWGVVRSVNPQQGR

Row | Compound | concentration giving sterilization of nonreplicating organisms [1] [µM] | half-life at 1 µM ([2]; pH 7.4) [min] | Percent remaining %REavg ([2]; microsomes, 5 min, 1 µM, pH 7.4) [%] | microsomal CLint at 1 µM ([2]; microsomes, pH 7.4) [µL/min/mg] | remaining at 5 min, 1 µM ([2]; microsomes, pH 7.4, Percent remaining %REavg) [%] | IC50 [3] [µM] | IC50 (CYP2B6) [µM] | MIC ([4]; Mycobacterium tuberculosis, 120 h, read-out: MIC Wild type) [µM] | MIC Wild type [4] [µM] | MIC LepB-UE [5] [µM] | MIC ([5]; Mycobacterium tuberculosis, 120 h) [µM]
1 | CCCCNC(=S)Nc1nc2ccccc2s1 [Molecule 1, 1-(benzo[d]thiazol-2-yl)-3-butylthiourea] | 20 | 24 | 98.1 | 96 | 96.6 | > 200 | > 20 | – | – | – | –
2 | CCCCNC(=S)Nc1nc(C)co1 [Molecule 21, 1-butyl-3-(4-methyloxazol-2-yl)thiourea] | – | 13 | – | 179 | – | – | > 20 | 10 (≈ 2.13 µg/mL) | 10 ± 2.0 (≈ 2.13 µg/mL) | 8.4 ± 3.4 (≈ 1.79 µg/mL) | 8 to 9 (≈ 1.71 to 1.92 µg/mL)
